Where two headings read alike, the source gives them in different places.

One test has as its system DOHH2. Nature of the test: in vitro cell experiments, sensitivity of DOHH2 cell line. In kind it is cell-based. The settings on record: DOHH2 human follicular lymphoma cell line.
Test [1] deals with human DOHH2 (FL) mouse xenograft tumor. In kind it is in vivo. Conditions: day 15; for Tumor remission on the 15th day after administration: CR: animals with CR/group; for Tumor remission on the 15th day after administration: PR: animals with PR/group. How it is done:
(§1) All animal experiments were strictly in accordance with the laboratory animal use and management practices of GenePharma Co., Ltd. and Ascentage Pharma Group Co., Ltd. The calculation of relevant parameters referred to the Chinese CFDA “Guidelines for Non-Clinical Research Techniques of Cytotoxic Antitumor Drugs”.
(§2) The animal body weight and tumor size were measured twice weekly during the experiment. The conditions and death of the animals were observed every day. Routine monitoring included the effects of tumor growth and treatment on normal animal behaviors, including activity, feeding and drinking situations, weight gain or loss, eyes, coat and other abnormalities in the experimental animals. The deaths and clinical symptoms observed during the experiment were recorded in the raw data. The entire operations of administration, measurement of mouse body weight and tumor volume were performed in a clean bench. Plasma and tumor tissues were collected, weighed and photographed after the end of the last administration according to the experimental protocol. Plasma and tumor samples were snap frozen and stored at −80° C.
(§3) Tumor volume (TV) was calculated as: TV=a×b2/2, in which a and b represented the length and width of the tumor as measured, respectively. The relative tumor volume (RTV) was calculated as: RTV=Vt/V1, in which V1 was the tumor volume at the time of grouping and administration, and Vt was the tumor volume measured on a day after administration. […] Change of body weight %=(measured body weight−body weight at the time of grouping)/body weight at the time of grouping×100%.
(§4) If the synergy factor was >1, there was a synergistic effect; if the synergistic factor=1, there was an additive effect; if the synergistic factor <1, there was an antagonistic effect.
CHOP included: cyclophosphamide, 20 mg/kg, intraperitoneal injection, administered on the 1st and 9th days; doxorubicin, 2 mg/kg, intravenous injection, administered on the 1st day; vincristine, 0.1 mg/kg, intravenous injection, administered on the 1st and 9th days; prednisone, 0.5 mg/kg, orally administered on the 1st day. […] The injected dose was 10 mL/kg (0.2 mL/mouse). The agent was dissolved in saline. […] The agent was dissolved in saline. Vincristine (batch number 0708v1) was purchased from Shenzhen Main Luck Pharmaceuticals Inc. Vincristine was administered by intravenous injection at a dose of 10 mL/kg (0.2 mL/mouse). The agent was dissolved in saline. Prednisone (batch number M0412A) was purchased from Dalian Meilun Biotechnology Co., Ltd. Prednisone was administered by oral gavage at a dose of 10 mL/kg (0.2 mL/mouse). […] The dosage formulations were prepared freshly prior to use. The preparation and use of the dosage formulations were always carried out under sterile conditions.

Test [2] has as its system human Toledo (DLBCL) mouse xenograft tumor. The class given is in vivo. Conditions: Compound 6 100 mg/kg p.o. qd×14 days; rituximab 4 mg/kg i.v. qw; day 15. How it is done:
as §1, §2, §3, §4

The next test concerns OCI-LY8 cells. Nature of the test: in vitro experiment, sensitivity of OCI-LY8 cells. The settings on record: OCI-LY8 human DLBCL cell line. In kind it is cell-based. How it is done:
(1) The experimental method was as described in Example 1. In the in vitro experiment, OCI-LY8 cells were also human DLBCL cell lines sensitive to Compound 6 treatment, with an IC50 value of 0.006±0.002 μM. Therefore, this experiment used OCI-LY8 cells to establish a mouse xenograft tumor model (A. Esteve-Arenys et al. The BET bromodomain inhibitor CP1203 overcomes resistance to ABT-199 (venetoclax) by downregulation of BFL-1/A1 in in vitro and in vivo models of MYC+/BCL2+ double hit lymphoma. Oncogene 37(14). January 2018), and thereby evaluated the anti-tumor effect of Compound 6 in combination with rituximab.

Test [3] deals with human OCI-LY8 (DLBCL) mouse xenograft tumor. The class given is in vivo. How it is done: as §1, §2, §3, §4
Bendamustine was an FDA approved drug for the treatment of B-cell non-Hodgkin's lymphoma.

Another test has as its system Toledo. Nature of the test: in vitro cell experiments, sensitivity of Toledo cell line. The class given is cell-based. Conditions: Toledo human DLBCL cell line.
[4] abbreviates: Table 4: Cpd. 6 100 mg/kg p.o. qd, bendamustine 25 mg/kg, rituximab 10 mg/kg.
Setting [5] is: Table 4: Cpd. 6 100 mg/kg, bendamustine 25 mg/kg, rituximab 10 mg/kg.
Where [6] appears, read: Table 5: Cpd. 6 100 mg/kg, CHOP regimen.
[7] abbreviates: Cpd. 6 25 mg/kg p.o. qd×15d, day 11.
[8] abbreviates: Cpd. 6 50 mg/kg p.o. qd×15d, alone or + rituximab 4 mg/kg i.v. qw×2 wks, day 11.
Where [9] appears, read: Cpd. 6 100 mg/kg p.o. qd×15d, alone or + rituximab 4 mg/kg i.v. qw×2 wks, day 11.
[10] abbreviates: Table 3: Cpd. 6 100 mg/kg p.o. qd, bendamustine 25 mg/kg i.v., rituximab 10 mg/kg i.v., day 11.
[11] abbreviates: rituximab alone 4 mg/kg i.v. qw×2 wks, day 11.

`O=C(NS(=O)(=O)c1ccc(NC[C@H]2COCCO2)c([N+](=O)[O-])c1)c1ccc(N2CCN(CC3=C(c4ccc(Cl)cc4)CC4(CCC4)CC3)CC2)cc1Oc1cnc2[nH]ccc2c1` [Compound 6, (S)-N-((4-(((1,4-dioxan-2-yl)methyl)amino)-3-nitrophenyl)sulfonyl)-2-((1H-pyrrolo[2,3-b]pyridin-5-yl)oxy)-4-(4-((6-(4-chlorophenyl)spiro[3.5]non-6-en-7-yl)methyl)piperazin-1-yl)benzamide]: in the test with DOHH2, the “sensitivity of cell line to Compound 6 treatment” value is on record as “relatively sensitive”. Besides, the “RTV on the 15th day after administration (mean ± standard error)” value in test [1] (setting [4]) is reported as 3.06 ± 0.79; in test [1] (Table 5: Cpd. 6 100 mg/kg, CHOP (cyclophosphamide 20 mg/kg i.p. d1, d9; doxorubicin 2 mg/kg i.v. d1; vincristine 0.1 mg/kg i.v. d1, d9; prednisone 0.5 mg/kg p.o. d1)), 3.06 ± 0.79; in test [2], 4.93 ± 0.41 ^. Further, the results for the “T/C (%) on the 15th day after administration” value in test [1] (setting [4]), in test [1] (setting [6]) and in test [2] were 28%, 28% and 38%, respectively. For the same compound, the “Tumor remission rate on the 15th day after administration %” value in test [1] (setting [5]) and in test [1] (setting [6]) was 0% each time. The “Tumor remission on the 15th day after administration: CR” value in test [1] (setting [5]) and in test [1] (setting [6]) was 0/5 throughout. Moreover, the “Tumor remission on the 15th day after administration: PR” value in test [1] (setting [5]) and in test [1] (setting [6]) was 0/5 each time. The half-maximal inhibitory concentration (IC50) was found to be 6 ± 2 nM in the test with OCI-LY8 cells and 49 ± 5 nM with Toledo. Besides, the “RTV on the 11th day after administration (mean ± standard error)” value was 6.87 ± 2.1 **^ in test [3] (setting [7]), 6.19 ± 1.86 in test [3] (setting [8]), 5.54 ± 1.78 in test [3] (setting [9]) and 5.54 ± 1.78 in test [3] (setting [10]). Besides, the “T/C (%) on the 11th day after administration” value in test [3] (setting [7]) came to 37%; in test [3] (setting [8]), 33%; in test [3] (setting [9]), 30%; in test [3] (setting [10]) it was 30%. The “Tumor status on the 11th day after administration (remission rate %)” value in test [3] (setting [7]) was 0%; in test [3] (Cpd. 6 50 mg/kg, alone or + rituximab 4 mg/kg, day 11), 0%; in test [3] (Cpd. 6 100 mg/kg, alone or + rituximab 4 mg/kg, day 11), 0%. The “Tumor status on the 11th day after administration: CR” value is given as 0/5 CR, in test [3] (Cpd. 6 25 mg/kg p.o. qd×15d, day 11, animals with CR/group); 0/5 CR, in test [3] (Cpd. 6 50 mg/kg, alone or + rituximab 4 mg/kg, day 11, animals with CR/group); 0/5 CR, in test [3] (Cpd. 6 100 mg/kg, alone or + rituximab 4 mg/kg, day 11, animals with CR/group). For the same compound, the “Tumor status on the 11th day after administration: PR” value (shortened to “Tumor status on the 11th day … PR”) in test [3] (Cpd. 6 25 mg/kg p.o. qd×15d, day 11, animals with PR/group) is recorded as 0/5; in test [3] (Cpd. 6 50 mg/kg, alone or + rituximab 4 mg/kg, day 11, animals with PR/group) it was 0/5; in test [3] (Cpd. 6 100 mg/kg, alone or + rituximab 4 mg/kg, day 11, animals with PR/group), 0/5. The “On the 11th day after administration (remission rate %)” value in test [3] (Table 3: Cpd. 6 100 mg/kg, bendamustine 25 mg/kg, rituximab 10 mg/kg, day 11) is listed as 0%. Also, the “On the 11th day after administration: CR” value in test [3] (Table 3: Cpd. 6 100 mg/kg, bendamustine 25 mg/kg, rituximab 10 mg/kg, day 11, animals with CR/group) is on record as 0/5 CR,. Further, the “On the 11th day after administration: PR” value in test [3] (Table 3: Cpd. 6 100 mg/kg, bendamustine 25 mg/kg, rituximab 10 mg/kg, day 11, animals with PR/group) is on record as 0/5.
Take Rituximab [reference compound]: in test [2], the “RTV on the 15th day after administration (mean ± standard error)” value is 8.99 ± 2.15 ^ and the “T/C (%) on the 15th day after administration” value was determined as 69%. For the same compound, in test [3] (setting [11]), the “RTV on the 11th day after administration (mean ± standard error)” value turned out to be 1.38 ± 0.69 and the “T/C (%) on the 11th day after administration” value stood at 7%. In addition, in test [3] (rituximab alone 4 mg/kg, day 11), the “Tumor status on the 11th day after administration (remission rate %)” value is on record as 80%. Besides, the “Tumor status on the 11th day after administration: CR” value in test [3] (rituximab alone 4 mg/kg, day 11, animals with CR/group) was 0/5 CR,. In test [3] (rituximab alone 4 mg/kg, day 11, animals with PR/group), the “Tumor status on the 11th day … PR” value is on record as 4/5. Also, the “Tumor status on the 11th day … PR” value in test [3] (rituximab alone 4 mg/kg, day 11, animals with PR/group, listed as rituximab) was “Four out of five”. Besides, the “RTV on the 22nd day after administration (mean ± standard error)” value in test [3] (rituximab alone 4 mg/kg, day 22, after drug discontinuance) was 20.04 ± 5.38 ^.

As usually defined, the IC50 is the concentration at which inhibition is half-maximal.

Source of the values: patent US11554127B2, “Synergistic antitumor effect of Bcl-2 inhibitor combined with rituximab and/or bendamustine or Bcl-2 inhibitor combined with CHOP” (ASCENTAGE PHARMA (SUZHOU) CO., LTD., priority 2018, dated 2023).
